Measured values published in the NIST ThermoML archive (doi:10.1021/je060271a).
Values joined by “and” are separate entries in the source; they are usually repeats but may differ in a detail not shown here. Identical values can stand only once.

Settings: 283.14 K, Liquid, Vibrating tube method

CCCCCCC(=O)OCC(COC(=O)CCCCCC)(COC(=O)CCCCCC)COC(=O)CCCCCC [pentaerythritol tetraheptanoate]
Settings	mass density
99.9 kPa	986 kg/m3
100.4 kPa	985.9 kg/m3 and 986 kg/m3
100.6 kPa	985.8 kg/m3
100.8 kPa	985.9 kg/m3
100.9 kPa	985.9 kg/m3
104.1 kPa	985.9 kg/m3
108.1 kPa	985.9 kg/m3
116.6 kPa	986 kg/m3
124.9 kPa	986 kg/m3
130.8 kPa	986 kg/m3
135.4 kPa	985.9 kg/m3
142 kPa	985.9 kg/m3
146.3 kPa	986 kg/m3
150.6 kPa	986 kg/m3
154.5 kPa	986 kg/m3
158.5 kPa	986 kg/m3
164.2 kPa	986 kg/m3
168.9 kPa	985.9 kg/m3
174.6 kPa	986 kg/m3
181.1 kPa	986 kg/m3
189.8 kPa	986 kg/m3
198.1 kPa	986 kg/m3
208.7 kPa	986 kg/m3
218.8 kPa	986 kg/m3
231 kPa	985.9 kg/m3
246.9 kPa	986 kg/m3
262.2 kPa	986 kg/m3
279.6 kPa	985.9 kg/m3
304.3 kPa	985.9 kg/m3
328.1 kPa	986 kg/m3
354.9 kPa	986 kg/m3
383.4 kPa	986.2 kg/m3
410.5 kPa	986.1 kg/m3
428.6 kPa	986.2 kg/m3
445.6 kPa	986.1 kg/m3
459.5 kPa	986.2 kg/m3
470.3 kPa	986.1 kg/m3
483.1 kPa	986.2 kg/m3
493.7 kPa	986.2 kg/m3
504.3 kPa	986.1 kg/m3
518.6 kPa	986.2 kg/m3
531.3 kPa	986.2 kg/m3
543.6 kPa	986.2 kg/m3
560.1 kPa	986.2 kg/m3
574.5 kPa	986.2 kg/m3
588.8 kPa	986.2 kg/m3
607.2 kPa	986.2 kg/m3
623.7 kPa	986.2 kg/m3
641.4 kPa	986.2 kg/m3
659.1 kPa	986.3 kg/m3
682.8 kPa	986.3 kg/m3
703.5 kPa	986.3 kg/m3
725 kPa	986.2 kg/m3
748.3 kPa	986.2 kg/m3
777.3 kPa	986.4 kg/m3
803.3 kPa	986.3 kg/m3
830.4 kPa	986.3 kg/m3
857.2 kPa	986.4 kg/m3
881.9 kPa	986.4 kg/m3
894.4 kPa	986.4 kg/m3
910.2 kPa	986.5 kg/m3
922.9 kPa	986.5 kg/m3
936.1 kPa	986.4 kg/m3
950.3 kPa	986.3 kg/m3
964.4 kPa	986.4 kg/m3
981.7 kPa	986.3 kg/m3
997.4 kPa	986.4 kg/m3
1013.2 kPa	986.5 kg/m3
1029.5 kPa	986.4 kg/m3
1046.2 kPa	986.4 kg/m3
1066 kPa	986.6 kg/m3
1084 kPa	986.4 kg/m3
1102.6 kPa	986.5 kg/m3
1119.8 kPa	986.5 kg/m3
1142.7 kPa	986.6 kg/m3
1162 kPa	986.6 kg/m3
1186.3 kPa	986.5 kg/m3
1207.3 kPa	986.5 kg/m3
1229.4 kPa	986.6 kg/m3
1252.5 kPa	986.5 kg/m3
1277.3 kPa	986.7 kg/m3
1301.1 kPa	986.6 kg/m3
1329.6 kPa	986.7 kg/m3
1354.8 kPa	986.6 kg/m3
1386.2 kPa	986.6 kg/m3
1412.2 kPa	986.7 kg/m3
1440.9 kPa	986.6 kg/m3
1469.5 kPa	986.6 kg/m3
1505.1 kPa	986.6 kg/m3
1536 kPa	986.8 kg/m3
1568.8 kPa	986.7 kg/m3
1609.6 kPa	986.8 kg/m3
1645.7 kPa	986.8 kg/m3
1682.5 kPa	986.8 kg/m3
1719 kPa	986.8 kg/m3
1765.3 kPa	986.9 kg/m3
1804.9 kPa	986.9 kg/m3
1848.1 kPa	986.9 kg/m3
1898.4 kPa	986.8 kg/m3
1940.3 kPa	987 kg/m3
1966.1 kPa	986.9 kg/m3
1976.7 kPa	987 kg/m3
1988.3 kPa	987.1 kg/m3
2001 kPa	987 kg/m3
2021 kPa	987 kg/m3
2110 kPa	987 kg/m3
2201.2 kPa	987.1 kg/m3
2343.8 kPa	987.2 kg/m3
2462.5 kPa	987.4 kg/m3
2487.8 kPa	987.3 kg/m3
2506.9 kPa	987.3 kg/m3
2521.6 kPa	987.2 kg/m3
2536.4 kPa	987.3 kg/m3
2553.4 kPa	987.3 kg/m3
2568.1 kPa	987.2 kg/m3
2582.9 kPa	987.4 kg/m3
2600 kPa	987.4 kg/m3
2614.3 kPa	987.4 kg/m3
2628.5 kPa	987.3 kg/m3
2642.2 kPa	987.3 kg/m3
2656.6 kPa	987.4 kg/m3
2675.1 kPa	987.4 kg/m3
2688.8 kPa	987.5 kg/m3
2704.6 kPa	987.4 kg/m3
2719.9 kPa	987.5 kg/m3
2736 kPa	987.6 kg/m3
2751.8 kPa	987.5 kg/m3
2766.5 kPa	987.5 kg/m3
2800.3 kPa	987.5 kg/m3
2816.5 kPa	987.5 kg/m3
2832.1 kPa	987.5 kg/m3
2851.8 kPa	987.5 kg/m3
2867.8 kPa	987.5 kg/m3
2885.5 kPa	987.5 kg/m3
2902.1 kPa	987.6 kg/m3
2918.6 kPa	987.6 kg/m3
2935.2 kPa	987.6 kg/m3
2954.3 kPa	987.6 kg/m3
2972 kPa	987.8 kg/m3
2987.9 kPa	987.4 kg/m3
3008.9 kPa	987.6 kg/m3
3025.6 kPa	987.6 kg/m3
3043.9 kPa	987.6 kg/m3
3062.1 kPa	987.7 kg/m3
3082.8 kPa	987.8 kg/m3
3101.3 kPa	987.7 kg/m3
3118.5 kPa	987.7 kg/m3
3140.8 kPa	987.7 kg/m3
3158.5 kPa	987.7 kg/m3
3176.4 kPa	987.8 kg/m3
3198.6 kPa	987.7 kg/m3
3218.2 kPa	987.7 kg/m3
3237.6 kPa	987.8 kg/m3
3256.6 kPa	987.8 kg/m3
3279 kPa	987.8 kg/m3
3300 kPa	987.8 kg/m3
3320.3 kPa	987.7 kg/m3
3339.7 kPa	987.8 kg/m3
3362.4 kPa	987.8 kg/m3
3382.2 kPa	987.9 kg/m3
3402.9 kPa	987.8 kg/m3
3422.4 kPa	987.9 kg/m3
3448.4 kPa	987.9 kg/m3
3468.1 kPa	987.9 kg/m3
3488.6 kPa	987.9 kg/m3
3515.4 kPa	987.8 kg/m3
3535.7 kPa	988 kg/m3
3561.2 kPa	987.9 kg/m3
3584.9 kPa	987.9 kg/m3
3606.2 kPa	987.9 kg/m3
3628.7 kPa	988 kg/m3
3652.3 kPa	987.9 kg/m3
3675 kPa	988 kg/m3
3703.2 kPa	988 kg/m3
3725.9 kPa	988 kg/m3
3750.4 kPa	988.1 kg/m3
3777.7 kPa	988.1 kg/m3
3800.4 kPa	988.1 kg/m3
3825.2 kPa	988 kg/m3
3853.3 kPa	988 kg/m3
3879.1 kPa	988 kg/m3
3903.5 kPa	988 kg/m3
3929.1 kPa	988.2 kg/m3
3959.3 kPa	988.2 kg/m3
3983.7 kPa	988.1 kg/m3
4010 kPa	988.4 kg/m3
4036.2 kPa	988.2 kg/m3
4066.7 kPa	988.2 kg/m3
4093.2 kPa	988.2 kg/m3
4121.2 kPa	988.2 kg/m3
4152.6 kPa	988.3 kg/m3
4181.1 kPa	988.3 kg/m3
4209.5 kPa	988.3 kg/m3
4236.7 kPa	988.3 kg/m3
4257.5 kPa	988.4 kg/m3
4379.6 kPa	988.4 kg/m3
4380.1 kPa	988.4 kg/m3
4380.5 kPa	988.4 kg/m3
4380.8 kPa	988.4 kg/m3
4381 kPa	988.4 kg/m3
4381.5 kPa	988.3 kg/m3
4381.9 kPa	988.6 kg/m3
4382.2 kPa	988.4 kg/m3
4382.4 kPa	988.4 kg/m3
4382.6 kPa	988.3 kg/m3 and 988.5 kg/m3
4382.7 kPa	988.4 kg/m3
4382.9 kPa	988.4 kg/m3 and 988.5 kg/m3
4383.1 kPa	988.4 kg/m3
4383.2 kPa	988.3 kg/m3 and 988.4 kg/m3
4383.4 kPa	988.5 kg/m3 and 988.4 kg/m3
4383.6 kPa	988.3 kg/m3 and 988.4 kg/m3 and 988.5 kg/m3
4383.8 kPa	988.5 kg/m3 and 988.4 kg/m3
4383.9 kPa	988.4 kg/m3 and 988.5 kg/m3 and 988.3 kg/m3
4384.1 kPa	988.4 kg/m3 [middle of 5 runs]
4384.3 kPa	988.4 kg/m3 and 988.5 kg/m3 and 988.3 kg/m3
4384.5 kPa	988.4 kg/m3 and 988.5 kg/m3 and 988.3 kg/m3
4384.6 kPa	988.5 kg/m3 and 988.4 kg/m3
4384.8 kPa	988.4 kg/m3 and 988.3 kg/m3
4385 kPa	988.4 kg/m3 and 988.3 kg/m3 and 988.5 kg/m3
4385.1 kPa	988.4 kg/m3 and 988.3 kg/m3 and 988.5 kg/m3
4385.3 kPa	988.4 kg/m3 and 988.5 kg/m3
4385.4 kPa	988.4 kg/m3
4385.5 kPa	988.4 kg/m3 and 988.3 kg/m3
